Data taken from patent publication US8133903B2, “Methods of use of inhibitors of phosphodiesterases and modulators of nitric oxide, reactive oxygen species, and metalloproteinases in the treatment of peyronie's disease, arteriosclerosis and other fibrotic diseases” (Los Angeles Biomedical Research Institute at Harbor—UCLA …, priority 2003, dated 2012).
Blank lines part the entries; values can stand above or below the compound they belong to.

Experiments:
[1] = tested on: fibroblast cultures from human PD plaque; test: Collagen I/III and ASMA immunocytochemistry with QIA in fibroblast cultures from human PD plaque; format: cell-based; details: for number of ASMA positive cells (myofibroblasts): control 37%; for synthesis of collagen III: PDE inhibitors
Text: (§1) Primary human cell cultures: Human fibroblast primary cultures were obtained from fragments of PD plaque or TA essentially according to Smith and Liu (2002), and their purity was established by immunohistochemistry, as detailed below. New primary cultures were obtained from fragments of PD plaque or TA that were washed in Hanks solution, minced in a fibroblast growth medium (FGM) (BioWhittaker Inc., Walkersville, Md.) and 20% fetal bovine serum (FBS), and plated onto a 25 cm^2 culture flask per specimen (Vernet et al., 2002). Fragments were left undisturbed until attachment for about 1 week. Once the monolayer started to develop, the fragment was removed. Medium with 10% FBS was changed once a week and when cells achieved approximately 80% confluence (3-4 weeks) they were trypsinized and split onto 10 cm plates. Cells were allowed to grow again to 80% confluence, with medium changed twice a week. The cells collected from this passage were considered as passage 1. Successive passages were performed at 1/3 split ratio, and studies were carried out on cells from passages 3 onwards. Studies were performed with PD cells from the 4th to the 10th passages. Cells were incubated on: a) 75 cm^2 flasks for RNA isolation; b) 6-well plates for protein isolation; and c) 8-well removable chambers for cytochemistry and immunocytochemistry. Treatments with different additions were initiated 24 hours after plating and continued for different periods.
In the case of cell cultures, at completion of incubations, slides were removed from the chambers and cells were fixed for immunodetection for 20 min in 4% buffered formalin at room temperature for α-smooth muscle actin (ASMA) (as a myofibroblast marker), vimentin (as a general fibroblast marker), and in certain cases for PDE5 and PDE4, or in ethanol at −20 C for collagen I and III (Vernet et al., 2002). The cells were quenched, blocked with normal goat serum and incubated with monoclonal primary antibodies for ASMA and vimentin (Sigma Immunohistology Kits, Sigma Chemical Co, St. Louis, Mo.), collagen I, and collagen III (1:40) (Chemicon International, Temecula, Calif.), overnight at 4° C. (Vernet et al., 2002; Ferrini et al., 2002). Processing was according with the manufacturer's instructions for ASMA, vimentin and collagen, consisting in the respective monoclonal antibodies and an anti-mouse biotinylated secondary antibody, followed by avidin-biotinylated HRP and the 3-amino-9-ethylcarbazol (AEC) chromogen. For PDE5A, the antibodies were as described above. Negative controls omitted the first antibodies or were replaced by IgG isotype at the same concentration of the first antibodies. Counterstaining was done with Mayer's hematoxylin. All the slides were mounted with Aqua Mount (Lerner, Pittsburgh, Pa.). For PDE4, the anti PDE4A and PDE4B affinity purified IgGs used for western blot was employed, and in addition the anti-PDE4A4 and anti-PDE4D (detecting variants 1-5) from the same source (FabGennix Inc.) were used.
(§2) The quantitation of the staining obtained by either histochemical or immunohisto/cytochemical techniques was performed by computerized densitometry using the ImagePro 4.01 program (Media Cybernetics, Silver Spring, Md.), coupled to an Olympus BHS microscope equipped with a Spot RT digital camera or VCC video camera (Wang et al., 2001; Ferrini et al., 2001a, 2001b; Davila et al., 2003b).

[2] = tested on: fibroblast cultures from human PD plaque; test: TUNEL apoptosis in fibroblast cultures from human PD plaque
Protocol: Cells incubated in 8-well chamber slides were allowed to grow to 50-60% confluence. At this point, cells received in duplicate sildenafil, pentoxifylline, or 8-Br cGMP at the concentrations indicated, and were allowed to propagate for 3 days without changing medium. In certain cases SNAP was added and replaced daily after changing the medium (Vernet et al., 2002). All studies were done in duplicate or triplicate.
For cell cultures, the cells were fixed in 4% formaldehyde for 30 min on ice, and post-fixed with ethanol-acetic acid 2/1 for 5 min at −20 C. Then the above procedure was applied, except that the proteinase K was omitted.
The number of positive cells was counted in a computerized grid against the total number of cells determined by counterstaining, and results were expressed as a percentage of positive cells over total cells. […] The apoptotic index (rate of programmed cell death) was calculated as the percentage of apoptotic cells within the total number of cells in a given area (non-apoptotic nuclei plus apoptotic cells). In all cases, five non-overlapping fields were screened per tissue section or per well. Three sections per tissue specimen from groups of five animals, or two wells per experimental point in cell incubations, were then used to calculate the means+/−SEM.

[3] = tested on: fibroblast cultures from human PD plaque; test: cGMP and cAMP enzyme immunoassays in fibroblast cultures from human PD plaque; format: cell-based; details: for cGMP levels as % of control levels: 3-day incubation
Text: as §1
The presence of PDEs in the PD fibroblasts in culture was confirmed by the ability of increasing concentrations of sildenafil and pentoxifylline to raise the basal cGMP and cAMP levels in triplicate wells, either in the absence or the presence of the NO donor, SNAP (S-nitroso-N-acetyl penicillamine) (Alexis Biochemicals, San Diego, Calif.) added daily at 100 μM, as measured by cGMP and cAMP EIA (enzyme immuno absorption) kits (Cayman Chemical, Ann Arbor, Mich.). Experiments were performed in duplicate. Values were expressed as pmoles cGMP or cAMP/mg protein. To normalize for differences between experiments, the changes in cGMP and cAMP levels exerted by sildenafil and pentoxifylline were expressed as % of their respective control values in the absence of the PDE inhibitors.

[4] = tested on: TGF-β1-induced fibrotic plaque in the rat tunica albuginea; test: TGF-β1 rat model of Peyronie's disease, plaque and collagen deposition by Masson staining with QIA; format: in vivo; details: for plaque size (Masson staining, collagen fiber/cell-lacunae area ratio, width of the tunica): oral in drinking water, 100 mg/l, 45 days following TGF-β1 injection
Protocol: (§3) TGF-β1 rat model. Male Fisher 344 rats, 9-11 month old purchased from the NIH/NIA colony (Harlan Sprague-Dawley, Inc., San Diego, Calif.) and maintained under controlled temperature and lighting, were anesthetized and injected in the penile TA at the middle of the penis with either vehicle only (saline, group 1) or 0.5 μg recombinant human TGF-β1 (Biotech Diagnostic, Laguna Niguel, Calif., groups 2-5) as disclosed (Ferrini et al., 2002; Vernet et al., 2002). After the injection, groups 1 and 2 were given drinking water while the other groups received water with L-arginine (2.25 g/kg/day, group 3) (Moody et al., 1997), or sildenafil (10 mg/kg/day, group 4) or pentoxifylline (10 mg/kg/day, group 5). Forty-five days later, or as indicated, animals were sacrificed and perfused through the left ventricle with saline followed by 4% formalin ((Ferrini et al., 2002; Vernet et al., 2002). After the penises were excised, the penile skin was denuded by removing the glans and adhering non-crural tissue. The penile shaft was separated from the crura and 2-3 mm transverse slices were cut around the site of the saline or TGF-β1 injection. All tissues were post-fixed overnight in 4% formalin, washed in PBS and stored at 4° C.
In the case of tissue sections, the determinations of the collagen/smooth muscle ratio were carried out with Masson trichrome (Ferrini et al., 2002; Davila et al., 2003b) on adjacent 5 μm paraffin-embedded cross-sections from the human normal tunical or plaque tissues, or from a 2 mm area around the site of injection in the rat saline- and TGF-β1-injected shaft tissues. Other distal sections were obtained along the rat penile shaft.
as §2

[5] = tested on: TGF-β1-induced fibrotic plaque in the rat tunica albuginea; test: TUNEL apoptosis in the TGF-β1-induced plaque of the rat tunica albuginea; format: in vivo; details: for apoptotic index in the plaque: oral in drinking water, 100 mg/l, 45 days following TGF-β1 injection
Protocol: as §3

[6] = tested on: normal human TA and PD fibroblast cultures; test: Fibroblast numbers in normal human TA and PD cultures; format: cell-based; details: both normal human TA and PD cultures
Text: as §1, with “Treatments with different additions were initiated 24 hours after plating and continued for different periods.” left out

PDE5A3 = PDE5A3 (Homo sapiens, UniProt O76074); details: cited from earlier work
[7] = cited from earlier work
[8] = in the presence of SNAP (100 uM), increasing concentrations

- intracellular cGMP levels ([3]; 100 uM, control 0.02): 1.83 nmoles/10^6 cells
Compound: Nc1nc2c(nc(Br)n2[C@@H]2O[C@@H]3COP(=O)(O)O[C@H]3[C@H]2O)c(=O)[nH]1 [8 Br-cGMP]
- reduction in the number of cells expressing collagen I ([1]; 10 μM, 3 days): 30%
- ASMA expression per cell (myofibroblast differentiation) ([1]; 400 μM, 3 days): decreased significantly
- number of cells expressing collagen I ([1]; 400 μM, 3 days, compared with 10 μM): did not induce further decrease
- collagen I expression per cell ([1]; 3 days): reduced only moderately and non-significantly
- relative number of ASMA positive cells ([1]; 3 days): no effect
- collagen I production by the cells ([1]; levels as low as 10 uM): inhibited collagen I production
- apoptosis by TUNEL ([2]; 100 uM, control 7.5+/−0.4): 20.5+/−1.1 cells per field
- increase of apoptosis (apoptotic index, TUNEL, image analysis) ([2]; 3 days, did not achieve statistical significance): 2.3 fold
- increase of cGMP levels in cell extracts ([3]; 8 Br-cGMP at 10 uM): 6.4 fold
- increase of cGMP levels in cell extracts ([3]; 8 Br-cGMP at 100 μM): 38.7 fold

Compound: N=C(N)NCCC[C@H](N)C(=O)O [L-arginine]
- size of the TGF-β1-induced plaque (Masson staining, collagen fiber/cell-lacunar area ratio) ([4]; oral L-arginine in drinking water (2.25%), 45 days after TGF-β1 injection): considerable decrease in the size
- apoptotic index (apoptotic cells/total number of cells) in the plaque ([5]; oral L-arginine (2.25%)): no significant difference
- number of apoptotic cells per field in the PD-like plaque ([5]; oral L-arginine (2.25%), vs control animals): increase

- cAMP levels ([3]; after 3 days with SNAP, basal 42.6+/−12.7 pmol/mg protein): did not vary significantly
Compound: CC(=O)N[C@H](C(=O)O)C(C)(C)SN=O [SNAP, S-Nitroso-N-acetyl penicillamine]
- collagen I synthesis in all the cells ([1]; NO donor in culture): inhibitory action
- myofibroblast differentiation ([1]; NO donor in culture): inhibitory action
- increase of cGMP levels in cell extracts ([3]; 100 uM SNAP, 3 days, daily replacement, basal 5.0+/−0.4 pmol/mg protein): 5.0 fold
- fibroblast numbers [6]: reduced fibroblast numbers

Compound: CC(=O)CCCCn1c(=O)c2c(ncn2C)n(C)c1=O [pentoxifylline]
- number of ASMA positive cells (myofibroblasts) ([1]; 3 days): about 24%
- synthesis of collagen III ([1]; 3 days): did not decrease, but even increased
- cGMP levels as % of control levels [3, 8]: did not increase significantly
- cAMP levels as % of control levels ([3]; in the presence of SNAP (100 uM), increasing concentrations, 3 days): very effective in increasing cAMP levels
- plaque size (Masson staining, collagen fiber/cell-lacunae area ratio, width of the tunica) [4]: considerable reduction in plaque size
- apoptotic index in the plaque [5]: intensification of the apoptotic index, especially for pentoxifylline

Compound: CCCc1nn(C)c2c(=O)[nH]c(-c3cc(S(=O)(=O)N4CCN(C)CC4)ccc3OCC)nc12 [sildenafil]
- number of ASMA positive cells (myofibroblasts) ([1]; 3 days): about 24%
- synthesis of collagen III ([1]; 3 days): did not decrease, but even increased
- cGMP levels ([3]; in the absence of SNAP): did not significantly stimulate
- cGMP levels as % of control levels [3, 8]: increased dose-dependently
- plaque size (Masson staining, collagen fiber/cell-lacunae area ratio, width of the tunica) [4]: considerable reduction in plaque size
- apoptotic index in the plaque [5]: intensification of the apoptotic index
- sensitivity of PDE5A3 to sildenafil compared with PDE5A1 (PDE5A3): twice as sensitive
- half-life [7]: 4 to 6 h
